“Also recorded” adds a separate entry of the source.
Columns and labels:
LD50 mouse (male) = details: in vivo
Source text: Examples of the compounds represented by the general formula [1] according to this invention and their toxicities are shown below.

broilers [1] = test: Crude fat content in liver of broilers (Test Example 1); assay type: in vivo, "A A Fuji" broilers (chicken)
Description: (§1) To each group consisting of 30 "A A Fuji" broilers (15 male, 15 female), a commercially available early period broiler feed (crumble form, Cp 22%, ME 3,030 kcal/kg) was given from beginning of feeding to 4 week age, and a latter period broiler feed (mash form, Cp 18%, ME 3,030 kcal/kg) was given ad libitum from 4 week age to 10 week age. The test period was from Oct. 10, 1981 through Dec. 20, 1981. Addition of test compounds to the above feeds in predetermined concentrations was conducted from 3 week age through the completion of the test.
(§2) Five broilers at 6 week age, five broilers at 8 week age and ten broilers at 10 week age were taken out from each group and slaughtered. Immediately after slaughtering, they were cooled in water for about 2 hr and the body weight of each slaughtered broiler was measured and subsequently they were stored at 2° C. for about 20 hr. Then, in order to measure abdominal fat, mesentary fat was removed and fat adhered to from gizzard to proventriculus was collected and weighed as the weight of abdominal fat. This weight was divided by body weight to obtain abdominal fat deposit per 100 g of body weight. Further, liver fat was also collected and weighed. A liver under freeze storage was cut into slices in a total quantity of 2 to 3 g. The slices were placed in a cylindrical filter paper and weighed. Then, these slices were dried for 3 hr in a hot air drier kept at 90° C. and subsequently extracted for 17 hr with ethyl ether in a Soxhlet fat extractor. After drying the extract for 3 hr at 60° C. and weighing the residue, crude fat content in liver was calculated.

laying hens [2] = test: Strength of eggshell of laying hens (Test Example 2); assay type: in vivo
Source text: (§3) As test hens, commercially available laying hens of 480 day age were used. The control group fed with a feed not containing any compound of this invention consisted of 100 laying hens, and each test group fed with a feed containing a compound of this invention consisted of 10 laying hens. The test was repeated twice. The test period was 16 weeks from Nov. 17, 1981 to Mar. 8, 1982. The first 4 weeks from the start was a preliminary observation period, during which each group was controlled so as to give the same egg production rate. As the feed, a commercially available feed for laying hens (Cp 16% or above, ME 2,800 kcal/kg or above) was used. From the 5th week, predetermined quantities of test compounds were uniformly added to this feed and the resulting blended feeds were given to test groups. Feeds and water were given ad libitum. Constant lighting was made for 14 hr a day. Egg production rate was daily recorded for each individual hen and egg weight for each test group. Feed intake quantity was obtained by calculating on every other week a difference between quantity fed and quantity left. For examining egg quality, strength of eggshell and thickness of eggshell were measured for all normal eggs laid during a period of the previous day of measurement to 3 P.M. of the measurement day. Strength of eggshell was measured by a FHK eggshell strength tester model FN-597, and thickness of eggshell by a dial thickness gauge.

[3] = Feed consumption of broilers (Test Example 1); assay type: in vivo, "A A Fuji" broilers (chicken); details: 2,400 ppm in feed
Description: as §1
Feed consumption was calculated by weighing feeds left at the time of body weight measurement, and therefrom feed conversion ratio was calculated.

[4] = Feed intake of laying hens (Test Example 2); assay type: in vivo; details: 2,500 ppm in feed
Source text: as §3, with “Constant lighting was made for 14 hr a day.” left out

[5] = Growth of body weight of broilers (Test Example 1); assay type: in vivo, "A A Fuji" broilers (chicken); details: for Body weight at week age 0: week age 0 (before addition); for Body weight at week age 3: week age 3 (start of addition)
Description: as §1
(1) Growth of body weight
[…] All broilers were measured and an average body weight was calculated for each group.

broilers [6] = test: Abdominal fat deposit of broilers (Test Example 1); assay type: in vivo, "A A Fuji" broilers (chicken)
Description: as §1, §2

laying hens [7] = test: Thickness of eggshell of laying hens (Test Example 2); assay type: in vivo
Source text: as §3

SMILES: CC(C)OC(=O)C(C(=O)OC(C)C)=C1SCS1 [compound 1]
- LD50 (LD50 mouse (male)): > 5000 mg/kg

SMILES: CCOC(=O)C(C(=O)OCC)=C1SC=CS1 [compound 5]
- LD50 (LD50 mouse (male)): 4900 mg/kg

SMILES: CCOC(=O)C(C(=O)OC(C)C)=C1SCS1 [compound 2]
- LD50 (LD50 mouse (male)): > 5000 mg/kg

SMILES: CC(C)OC(=O)C(C(=O)OC(C)C)=C1SC(C(=O)O)S1 (stereo not shown)
- LD50 (LD50 mouse (male)): > 5000 mg/kg

SMILES: CC(C)OC(=O)C(C(=O)OC(C)C)=C1SCC[S+]1[O-] (stereo not shown) [compound 7]
- LD50 (LD50 mouse (male)): > 6000 mg/kg

SMILES: CC(C)OC(=O)C(C(=O)OC(C)C)=C1SC=CS1 [compound 4]
- Crude fat content in liver (broilers [1]; 6w, 200 ppm in feed): 2.20%
- Crude fat content in liver (broilers [1]; 6w, 400 ppm in feed): 2.06%
- Crude fat content in liver (broilers [1]; 6w, 800 ppm in feed): 2.17%
- Crude fat content in liver (broilers [1]; 6w, 2,400 ppm in feed): 2.11%
- Crude fat content in liver (broilers [1]; 8w, 200 ppm in feed): 5.23%
- Crude fat content in liver (broilers [1]; 8w, 400 ppm in feed): 5.02%
- Crude fat content in liver (broilers [1]; 8w, 800 ppm in feed): 4.62%
- Crude fat content in liver (broilers [1]; 8w, 2,400 ppm in feed): 4.04%
- Crude fat content in liver (broilers [1]; 10w, 200 ppm in feed): 4.47%
- Crude fat content in liver (broilers [1]; 10w, 400 ppm in feed): 4.29%
- Crude fat content in liver (broilers [1]; 10w, 800 ppm in feed): 4.25%
- Crude fat content in liver (broilers [1]; 10w, 2,400 ppm in feed): 3.96%
- Eggshell strength (laying hens [2]; 509th day, 100 ppm in feed): 2.47 kg
- Eggshell strength (laying hens [2]; 509th day, 500 ppm in feed): 2.46 kg
- Eggshell strength (laying hens [2]; 509th day, 2,500 ppm in feed): 2.44 kg
- Eggshell strength (laying hens [2]; 555th day, 100 ppm in feed): 2.88 kg
- Eggshell strength (laying hens [2]; 555th day, 500 ppm in feed): 2.93 kg
- Eggshell strength (laying hens [2]; 555th day, 2,500 ppm in feed): 2.97 kg
- Eggshell strength (laying hens [2]; 612th day, 100 ppm in feed): 2.97 kg
- Eggshell strength (laying hens [2]; 612th day, 500 ppm in feed): 3.02 kg
- Eggshell strength (laying hens [2]; 612th day, 2,500 ppm in feed): 3.08 kg
- Feed consumption (in words) [3]: significant reduction of feed consumption
- Feed intake (in words) [4]: a lower value was seen with significance
- LD50 (LD50 mouse (male); unit printed kg/mg): 3120 mg/kg
- Growth of body weight (in words) ([5]; broilers, 2,400 ppm in feed): badly affected; also recorded: lower growth of body weight
- Body weight at week age 0 ([5]; 200 ppm in feed from 3 week age): 41 g
- Body weight at week age 0 ([5]; 400 ppm in feed from 3 week age): 41 g
- Body weight at week age 0 ([5]; 800 ppm in feed from 3 week age): 41 g
- Body weight at week age 0 ([5]; 2,400 ppm in feed from 3 week age): 41 g
- Body weight at week age 3 ([5]; 200 ppm in feed): 620 g
- Body weight at week age 3 ([5]; 400 ppm in feed): 626 g
- Body weight at week age 3 ([5]; 800 ppm in feed): 625 g
- Body weight at week age 3 ([5]; 2,400 ppm in feed): 621 g
- Body weight at week age 4 ([5]; 200 ppm in feed): 981 g
- Body weight at week age 4 ([5]; 400 ppm in feed): 985 g
- Body weight at week age 4 ([5]; 800 ppm in feed): 984 g
- Body weight at week age 4 ([5]; 2,400 ppm in feed): 974 g
- Body weight at week age 5 ([5]; 200 ppm in feed): 1,341 g
- Body weight at week age 5 ([5]; 400 ppm in feed): 1,346 g
- Body weight at week age 5 ([5]; 800 ppm in feed): 1,330 g
- Body weight at week age 5 ([5]; 2,400 ppm in feed): 1,316 g
- Body weight at week age 6 ([5]; 200 ppm in feed): 1,661 g
- Body weight at week age 6 ([5]; 400 ppm in feed): 1,667 g
- Body weight at week age 6 ([5]; 800 ppm in feed): 1,662 g
- Body weight at week age 6 ([5]; 2,400 ppm in feed): 1,640 g
- Body weight at week age 7 ([5]; 200 ppm in feed): 2,090 g
- Body weight at week age 7 ([5]; 400 ppm in feed): 2,102 g
- Body weight at week age 7 ([5]; 800 ppm in feed): 2,065 g
- Body weight at week age 7 ([5]; 2,400 ppm in feed): 2,003 g
- Body weight at week age 8 ([5]; 200 ppm in feed): 2,502 g
- Body weight at week age 8 ([5]; 400 ppm in feed): 2,512 g
- Body weight at week age 8 ([5]; 800 ppm in feed): 2,496 g
- Body weight at week age 8 ([5]; 2,400 ppm in feed): 2,388 g
- Body weight at week age 9 ([5]; 200 ppm in feed): 2,860 g
- Body weight at week age 9 ([5]; 400 ppm in feed): 2,874 g
- Body weight at week age 9 ([5]; 800 ppm in feed): 2,871 g
- Body weight at week age 9 ([5]; 2,400 ppm in feed): 2,796 g
- Body weight at week age 10 ([5]; 200 ppm in feed): 3,105 g
- Body weight at week age 10 ([5]; 400 ppm in feed): 3,115 g
- Body weight at week age 10 ([5]; 800 ppm in feed): 3,098 g
- Body weight at week age 10 ([5]; 2,400 ppm in feed): 2,984 g
- Abdominal fat deposit (broilers [6]; 6w, 200 ppm in feed): 3.20 g/100 g
- Abdominal fat deposit (broilers [6]; 6w, 400 ppm in feed): 3.02 g/100 g
- Abdominal fat deposit (broilers [6]; 6w, 800 ppm in feed): 2.93 g/100 g
- Abdominal fat deposit (broilers [6]; 6w, 2,400 ppm in feed): 2.92 g/100 g
- Abdominal fat deposit (broilers [6]; 8w, 200 ppm in feed): 3.55 g/100 g
- Abdominal fat deposit (broilers [6]; 8w, 400 ppm in feed): 3.18 g/100 g
- Abdominal fat deposit (broilers [6]; 8w, 800 ppm in feed): 3.22 g/100 g
- Abdominal fat deposit (broilers [6]; 8w, 2,400 ppm in feed): 3.15 g/100 g
- Abdominal fat deposit (broilers [6]; 10w, 200 ppm in feed): 3.83 g/100 g
- Abdominal fat deposit (broilers [6]; 10w, 400 ppm in feed): 3.78 g/100 g
- Abdominal fat deposit (broilers [6]; 10w, 800 ppm in feed): 3.37 g/100 g
- Abdominal fat deposit (broilers [6]; 10w, 2,400 ppm in feed): 3.22 g/100 g
- Eggshell thickness (laying hens [7]; 509th day, 100 ppm in feed): 0.345 mm
- Eggshell thickness (laying hens [7]; 509th day, 500 ppm in feed): 0.342 mm
- Eggshell thickness (laying hens [7]; 509th day, 2,500 ppm in feed): 0.336 mm
- Eggshell thickness (laying hens [7]; 555th day, 100 ppm in feed): 0.343 mm
- Eggshell thickness (laying hens [7]; 555th day, 500 ppm in feed): 0.350 mm
- Eggshell thickness (laying hens [7]; 555th day, 2,500 ppm in feed): 0.347 mm
- Eggshell thickness (laying hens [7]; 612th day, 100 ppm in feed): 0.342 mm
- Eggshell thickness (laying hens [7]; 612th day, 500 ppm in feed): 0.345 mm
- Eggshell thickness (laying hens [7]; 612th day, 2,500 ppm in feed): 0.344 mm

SMILES: CC(C)OC(=O)C(C(=O)OC(C)C)=C1SCC(O)S1 (stereo not shown) [compound 8]
- LD50 (LD50 mouse (male)): > 6590 mg/kg

Reference: patent US4564627A, “Feed composition” (Nihon Nohyaku Co., Ltd., priority 1982, dated 1986)
